{"source": "patent US11124536B2", "about": "“Uridine nucleoside derivatives, compositions and methods of use” (Tufts University, priority 2013, dated 2021)", "key": {"PSAPP mice [1]": {"tested_on": "PSAPP mice", "assay": "Multiplex analysis of circulating plasma cytokine levels", "assay_type": "in vivo", "experimental": "Inflammatory cytokines were assessed in mouse plasma of both wild type and PS1/APP mice (Alzheimer's mouse model) and the impact of intraperitoneal delivery of the diphosphate derivative of compound 5 on circulating cytokines was assessed. […] 24 hours following the final injection, plasma was collected. Wildtype, age matched littermates and PSAPP mice (>6 months of age) were treated either with vehicle (phosphate buffered saline) or vehicle containing compound.\nAs part of the study described in Example 16, the levels of numerous cytokines in plasma of mice treated with vehicle or compound 5 were also evaluated. As described in Example 16, treatment was initiated when the mice were approximately 3 months old. PSAPP mice were treated for 100 days with daily injections of 10 μg/kg of compound 5 or vehicle. Following treatment and the fear conditioning task experiment, plasma was taken for multiplex cytokine analysis of circulating cytokine levels in vehicle-treated versus compound-treated PSAPP mice. Cytokine levels are assayed using a multi-plex system where beads are labelled with capture antibody specific for each analyte tested. Each bead set is coupled to a specific capture antibody and is distinguishable from beads coupled to a different capture antibody. Thus, the levels of each analyte can be evaluated and distinguished. […] In FIGS. 17-20, compound 5 is indicated along the x-axis as “compound”."}, "[2]": {"assay": "Cmax at the effective dose", "details": "mouse, in vivo; dose 10 ug/kg"}, "[3]": {"assay": "Half-life in human whole blood", "assay_type": "in vitro ADME"}, "PSAPP mice [4]": {"tested_on": "PSAPP mice", "assay": "Contextual fear conditioning test (freezing %)", "assay_type": "in vivo", "experimental": "On day one, animals were trained in a fear conditioning apparatus for a total of 7 minutes with a two-pairing paradigm of cue and mild foot shock (a 30-s acoustic-conditioned stimulus, 80 dB; a 2-s shock stimulus, 0.5 mA). To evaluate contextual fear learning, the animals were returned to the training context 24 hours post-training, and freezing behavior was scored for 5 minutes. Freezing behavior was monitored by MotorMonitor (Hamilton Kinder) and scored every 5 seconds.\nThis represents a decrease in the cognitive impairment observed in the untreated mice."}, "PSAPP mice [5]": {"tested_on": "PSAPP mice", "assay": "Postmortem immunohistochemistry of amyloid beta plaque load in cortex and hippocampus", "assay_type": "in vivo", "experimental": "Mice were perfused transcardially with 4% paraformaldehyde and 40 μm Coronal sections were collected. Sections were sequentially incubated in 0.3% H2O2 for 10 minutes, blocking solution for 2 hrs, blocking solution containing the primary antibody (rabbit anti-beta1-42; rabbit anti-beta1-40, from Chemicon International and rat anti-CD45) for 48 hours at 4° C., and blocking solution containing biotinylated antibody or fluorescently-labeled antibody for 2 hours at room temperature. Sections were visualized in a bright field microscope or a confocal microscope, and the optical density was obtained using MetaMorph software.\nTo generate these graphs showing plaque load, mice were euthanized, brain sections cut and antibodies directed against Aβ 42 were used to disclose Aβ plaques. Images were acquired digitally and an algorithm was applied to threshold the image so that plaques were isolated from the background. The algorithm then calculated the percent area of the field of view occupied by the plaques.\nBrain samples were collected for Abeta analysis with immunostaining. Brains samples were collected after transcardial perfusion with phosphate buffer and 4% paraformaldehyde. Floating brain sections (40 micron) were collected using a microtome. Immunostaining for Aβ40 and Aβ42 were performed according to previously established protocol. Images with DAB staining were collected with brightfield microscopy and analyzed with ImageJ Macro. All data analysis and statistics were performed in GraphPad Prism 6.0."}, "human THP-1 cells": {"tested_on": "human THP-1 cells", "assay": "Cytokine release from THP-1 cells into culture medium (multiplex cytokine analysis)", "assay_type": "cell-based", "details": "24 hours", "experimental": "THP-1 cells, a human cell line derived from monocytes, were treated in vitro with vehicle, the P2Y6 receptor antagonist MRS 2578, or compound 5, singly or in combination. THP-1 cells were seeded in 24 well plates at a density of 4×10^5 cells/well in culture medium for 24 hours. Thereafter, vehicle, compound 5, or MRS 2578 (singly or in combination) were added to the cultures for 24 hours. Subsequently the culture medium was aspirated and subjected to multiplex cytokine analysis. Data are presented as means+/−sem. MRS 2578 has a molecular weight of about 472 and is also described using CAS number 711019-86-2."}, "Oral bioavailability": {"assay": "Oral bioavailability", "details": "in vivo"}}, "note": "Entries after “also recorded” stand apart in the source; their conditions may differ."}
{"smiles": "O=C1C=CC([C@@H]2O[C@H](CO)C(O)C2O)C(=O)N1Cc1noc2ccccc12", "note": "(stereo partly shown) [compound 5]", "values": [{"measurement": "plasma levels of IL-4, IL-10, and IL-12 (IL-12(p70))", "setting": "PSAPP mice [1]; Example 17: 10 μg/kg daily 100 days from approx. 3 months old, FIG. 17", "value": "statistically significant reduction"}, {"measurement": "plasma level of p40 subunit alone (IL-12(p40))", "setting": "PSAPP mice [1]; Example 17: 10 μg/kg daily 100 days, FIG. 17", "value": "does not reflect a change"}, {"measurement": "average plasma levels of IFN-r, IL-1β, IL-2, IL-3, IL-5, IL-6, IL-7, IL-9, IL-13, IL-17, LIF, MIP-1α, and MIP-1β", "setting": "PSAPP mice [1]; Example 17: 10 μg/kg daily 100 days, FIGS. 17-20", "value": "reduced"}, {"measurement": "levels of M-CSF, MIP-2, Eotaxin, GM-CSF, G-CSF, LIX, MCP-1, IL-1α and IP-10", "setting": "PSAPP mice [1]; Example 17: 10 μg/kg daily 100 days, FIGS. 18-20", "value": "no or substantially no change"}, {"measurement": "plasma levels of IL-12 (IL-12(p70)), IL-13, IL-17, IL-10, IL-4, MIP-1a, MIP-1b, and IL-2", "setting": "PSAPP mice [1]; Example 18: 10 μg/kg i.p. daily 100 days from approx. 3 months old, FIG. 21", "value": "statistically significant reduction"}, {"measurement": "plasma levels of IL-12 (IL-12(p70)), IL-13, IL-17, IL-10, MIP-1a, MIP-1b, and TNFα", "setting": "PSAPP mice [1]; Example 19: 10 μg/kg i.p. daily 7 days from approx. 6 months old (symptomatic), FIG. 23", "value": "statistically significant reduction"}, {"measurement": "Cmax", "setting": "[2]", "value": 13, "unit": "nM"}, {"measurement": "half-life", "setting": "[3]", "value": 16.4, "unit": "h"}, {"measurement": "freezing time (contextual fear memory) vs vehicle", "setting": "PSAPP mice [4]; Example 16: 10 μg/kg i.p. daily 100 days from approx. 3 months old (pre-symptomatic), FIG. 15", "value": "statistically significant increase"}, {"measurement": "freezing time (contextual fear memory) vs vehicle", "setting": "PSAPP mice [4]; Example 18: 10 μg/kg i.p. daily 100 days from approx. 3 months old, FIG. 22C, p<0.02", "value": "statistically significant increase"}, {"measurement": "size distribution of remaining plaques", "setting": "PSAPP mice [5]; 10 μg/kg i.p. once per day for 7 days, PS1/APP mice 26 weeks", "value": "significantly reduced"}, {"measurement": "Aβ40 plaque burden", "setting": "PSAPP mice [5]; 10 μg/kg i.p. once per day for 7 days, PS1/APP mice 26 weeks, cortex, FIG. 13A", "value": "significantly reduced"}, {"measurement": "Aβ42 plaque burden", "setting": "PSAPP mice [5]; 10 μg/kg i.p. once per day for 7 days, PS1/APP mice 26 weeks, cortex, FIG. 13B", "value": "significantly reduced"}, {"measurement": "plaque burden vs vehicle", "setting": "PSAPP mice [5]; Example 16: 10 μg/kg i.p. daily 100 days from approx. 3 months old, FIG. 16", "value": "decrease; also recorded: reduced"}, {"measurement": "amyloid beta accumulation (plaque load) in the cortex", "setting": "PSAPP mice [5]; Example 18: 10 μg/kg i.p. daily 100 days, FIG. 22A, p<0.01", "value": "decreased"}, {"measurement": "amyloid beta accumulation (plaque load) in the hippocampus", "setting": "PSAPP mice [5]; Example 18: 10 μg/kg i.p. daily 100 days, FIG. 22B, p<0.02", "value": "decreased"}, {"measurement": "amyloid beta accumulation in the hippocampus (using Aβ42)", "setting": "PSAPP mice [5]; Example 19: 10 μg/kg i.p. daily 7 days from approx. 6 months old, FIG. 24A lower panel", "value": "decreased"}, {"measurement": "amyloid beta accumulation in the cortex (using Aβ40)", "setting": "PSAPP mice [5]; Example 19: 10 μg/kg i.p. daily 7 days from approx. 6 months old, FIG. 24A upper panel", "value": "decreased"}, {"measurement": "plaque size", "setting": "PSAPP mice [5]; Example 19: 10 μg/kg i.p. daily 7 days, FIG. 24B", "value": "decrease"}, {"measurement": "release of cytokines from THP-1 cells", "setting": "human THP-1 cells; 10 nM", "value": "reduced"}, {"measurement": "release of IL-7 from human THP-1 cells", "setting": "human THP-1 cells; compound 5 10 nM alone, FIG. 26", "value": "decreased"}, {"measurement": "bioavailability", "setting": "Oral bioavailability", "value": 72.2, "unit": "%"}]}
